As a reminder, the ED50 is the dose at which the effect has come halfway, by size or by number of responders. Broadly, the melting point is the temperature, or range, at which the solid turns liquid. In general, inhibition refers to the share of the control response that was lost under treatment.

In one data set the test system is 6 Hz (32 mA) seizures. Description: 6 Hz (32 mA) psychomotor seizure model.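 Also: adult male albino Swiss CD-1 mice, each used once, with compounds suspended in 1% Tween 80 in water as vehicle.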
A further data set relates to Na+ channel (site 2). Description: radioligand binding Na+ channel (site 2). The note with it: 100 µM, rat cerebral cortex. The method, then:
(§1) Binding/functional studies were performed commercially in Cerep Laboratories (Poitiers, France) using testing procedures described elsewhere. The general information is listed in Table S3 in the Supporting Information.
(§2) Table S3. The general information of radioligand binding/functional assays. […]
(§3) Assays were performed commercially in Eurofins Cerep SA (Celle l’Evescault, France) and Eurofins
(§4) Panlabs Discovery Services Taiwan, Ltd. (New Taipei City, Taiwan), using procedures describe

A further data set addresses T1, GlyT1 (Rattus norvegicus, UniProt P28572).
T1 construct: Cerep Laboratories / Eurofins (contract assay)
T1 sequence (P28572 1-638): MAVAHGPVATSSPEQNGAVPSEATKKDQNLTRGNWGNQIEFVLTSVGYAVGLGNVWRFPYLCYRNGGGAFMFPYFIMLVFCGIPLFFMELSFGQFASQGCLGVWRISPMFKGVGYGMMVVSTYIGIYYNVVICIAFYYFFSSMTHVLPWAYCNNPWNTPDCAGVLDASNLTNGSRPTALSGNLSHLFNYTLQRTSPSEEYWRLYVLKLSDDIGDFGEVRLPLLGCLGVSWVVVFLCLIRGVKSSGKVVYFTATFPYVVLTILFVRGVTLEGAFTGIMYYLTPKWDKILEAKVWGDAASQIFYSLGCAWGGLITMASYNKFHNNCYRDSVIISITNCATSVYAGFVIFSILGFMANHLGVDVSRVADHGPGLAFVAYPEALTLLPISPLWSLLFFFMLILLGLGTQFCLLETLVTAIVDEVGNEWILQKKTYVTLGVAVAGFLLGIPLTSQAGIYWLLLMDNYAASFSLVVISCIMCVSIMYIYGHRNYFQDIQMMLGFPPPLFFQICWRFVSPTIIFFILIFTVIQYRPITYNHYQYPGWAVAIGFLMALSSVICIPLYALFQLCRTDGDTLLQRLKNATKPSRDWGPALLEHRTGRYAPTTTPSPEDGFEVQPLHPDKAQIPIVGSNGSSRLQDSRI
The data set is described as follows: radioligand binding GlyT1. To be noted: rat cerebral cortex. The method, then: as §1, §2
GLYT1 (glycine transporter binding) (antagonist radioligand) […]
as §3, §4

For another data set, the system named is HepG2 cells. The data set is described as follows: hepatocytotoxicity MTT viability assay. To be noted: 1–50 µM, 24 h. It is filed as cell-based, human. The method, then:
To evaluate selected compounds’ hepatocytotoxicity and neurocytotoxicity, a human hepatocellular carcinoma cell line, HepG2 (ATCC® HB-8065™), and a human neuroblastoma cell line, SH-SY5Y (ATCC®, CRL-2266™), were used. Both cell lines were cultured in standard culture conditions (5% CO2, 37 °C, 95% humidity) using Dulbecco′s Modified Eagle′s—Medium (DMEM; Gibco, Thermo Scientific, Waltham, MA, USA) supplemented with 10% (vol/vol) fetal bovine serum (FBS; Gibco, Thermo Scientific, Waltham, MA, USA) and an antibiotic mixture (Penicillin, Streptomycin, Amphotericin B; Gibco, Thermo Scientific, Waltham, MA, USA). Cells were cultured with compounds 5, […], or 39 (1–50 µM) for 24 h and then an MTT (3-(4,5-dimethylthiazol-2-yl)-2,5diphenyltetrazolium bromide, Sigma-Aldrich, St. Louis, MO, USA) viability assay was performed. The formazan crystals were dissolved in DMSO (Sigma-Aldrich, St. Louis, MO, USA), and the absorbance at 570 nm was measured using a microplate reader (SpectraMax® iD3, Molecular Devices, San Jose, CA, USA). The experiment was performed three times in duplicate. Each bar represents the mean (±SEM) percentage of viable cells in comparison to the control (defined as 100% and represented by untreated cells).
Figure 2 The viability of HepG2 cells incubated in the presence of 5, 17, and 39. HepG2 cells were exposed to growing concentrations (1–50 µM) of tested compounds for 24 h. Cell viability was measured using an MTT assay. Bars represent mean percent of cell viability normalized to non-treated cells (100%) ± SEM. The doxorubicin was tested as a positive control.

Data set [1] relates to Cav1.2 (L-type) (diltiazem site). Description: radioligand binding Cav1.2 (L-type) diltiazem site. The note with it: 100 µM, rat cerebral cortex. Here is the method: as §1, §2
Ca2+channel (L, diltiazem site) (antagonist radioligand) […]
as §3, §4

Data set [2] has as its system maximal electroshock (MES) seizures. Description: maximal electroshock seizure (MES) test. It is filed as in vivo, mice.
In data set [3] the test system is Cav1.2 (L-type) (verapamil site). The data set is described as follows: radioligand binding Cav1.2 (L-type) verapamil site. The note with it: 100 µM, rat cerebral cortex. The method, then:
as §1, §2
Ca2+channel (L, verapamil site) (antagonist radioligand) […]
as §3, §4

SMILES strings stand for the structures. Like-named read-outs stand apart in the source and are kept apart here. Some results are limits rather than exact numbers.

The molecule `CC(C(=O)NCc1ccc(OCc2ccccc2)cc1)N1C(=O)CCC1=O` (stereo not drawn) [Compound 5, N-(4-(benzyloxy)benzyl)-2-(2,5-dioxopyrrolidin-1-yl)propanamide] yielded a melting point of 102.9 to 103.4 °C. For the same molecule, in the data set on 6 Hz (32 mA) seizures (Mus musculus, ip, 0.5 h, read-out: ED50 6 Hz (32 mA), mice i.p., TPE 0.5 h, 95% confidence interval in parentheses), the ED50 came out at 45.2 mg/kg. Besides, in the data set with 6 Hz (32 mA) seizures (Mus musculus, ip, 0.5 h, read-out: protection (efficacy) in the 6 Hz (32 mA) screening), the responders at 100 mg/kg turned out to be 50%. The “PI (TD50/ED50) 6 Hz” value in the data set on 6 Hz (32 mA) seizures (TD50 rotarod / ED50 6 Hz (32 mA)) is on record as greater than 6.6. Besides, the “ED50 6 Hz (32 mA)” value in the data set with 6 Hz (32 mA) seizures (mice i.p., TPE 0.5 h, 95% confidence interval in parentheses) is recorded as 45.19 (37.31–54.73) mg/kg. Further, the “% Inhibition of Control Specific Binding” value in the data set with Na+ channel (site 2) is 38.2 (100) %. Moreover, the “% Inhibition of Control Specific Binding” value on GlyT1 (100 µM) is “no significant interaction”. In addition, the inhibition at 100 µM on GlyT1 (read-out: % Inhibition of Control Specific Binding) was found to be 23%. For the same molecule, in the data set with HepG2 cells, the “toxic effect on HepG2 cell viability (MTT)” value is “do not exhibit toxic effects”. Moreover, the “% Inhibition of Control Specific Binding” value in data set [1] was 68.5 (100) %. Further, in data set [2] (Mus musculus, ip, mice i.p., 100 mg/kg, 0.5 h, four mice, read-out: protection (efficacy) in the MES screening), the responders at 100 mg/kg is 100%. Besides, the ED50 in data set [2] (Mus musculus, ip, mice i.p., TPE 0.5 h, 95% confidence interval in parentheses) worked out at 48 mg/kg. Further, the responders at 100 mg/kg in data set [2] (Mus musculus, ip, mice i.p., dose of 100 mg/kg, pretreatment time 0.5 h, read-out: MES test: number of mice protected / number of mice tested (converted)) is 100%. For the same molecule, the “PI (TD50/ED50) MES” value in data set [2] (TD50 rotarod / ED50 MES) was greater than 6.3. Besides, the “% Inhibition of Control Specific Binding” value in data set [3] was 57.1 (100) %.

For the origin of these results see article PMC11432405, “Development of Novel Alaninamide Derivatives with Anticonvulsant Activity and Favorable Safety Profiles in Animal Models” (International Journal of Molecular Sciences, 2024).
